Measurements as given in patent US20240182531A1, “KV1.3 Blockers” (priority 2021, published 2024).
Where a SMILES comes first, the peptide text is derived from it. Bridges are numbered along the chain shown (N, C = ends). [ ]: non-standard residue; d: D form. Nle = CCCC[C@H](N)C(=O)O

Each compound was assayed against Rat whole blood (Rattus norvegicus, UniProt P15384). Conditions: IL-17A release, thapsigargin, 24 Hr, at least 2 replicates.
Assay type: cell-based

Sequence of Rat whole blood (P15384 whole entry): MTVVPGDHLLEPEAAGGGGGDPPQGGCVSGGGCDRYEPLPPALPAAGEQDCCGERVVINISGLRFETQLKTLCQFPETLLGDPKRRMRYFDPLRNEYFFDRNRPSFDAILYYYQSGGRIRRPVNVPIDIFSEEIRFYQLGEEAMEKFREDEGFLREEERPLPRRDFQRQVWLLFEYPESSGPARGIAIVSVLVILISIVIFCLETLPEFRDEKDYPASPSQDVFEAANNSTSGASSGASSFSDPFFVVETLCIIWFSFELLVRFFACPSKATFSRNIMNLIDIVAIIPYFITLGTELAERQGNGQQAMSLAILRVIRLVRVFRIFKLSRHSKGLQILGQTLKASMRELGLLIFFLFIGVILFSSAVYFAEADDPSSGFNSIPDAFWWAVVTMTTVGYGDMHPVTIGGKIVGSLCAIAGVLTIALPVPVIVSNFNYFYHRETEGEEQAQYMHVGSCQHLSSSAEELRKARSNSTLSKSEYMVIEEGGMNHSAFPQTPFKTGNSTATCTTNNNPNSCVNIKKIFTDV

Row | Compound | IC50 [nM]
1 | H-P[Nle]E[Nle]RCSASVECKQKCLLAIGSIFGKC[Nle]NKKCKCYPR-OH (cysteine pairing not given here) [compound 93] | 0.5
2 | H-P[Nle]D[Nle]RCSASVECKQKCLKAIGCIFGKC[Nle]NKKCKCYPC-OH (cysteine pairing not given here) [compound 86] | 1.1
3 | NMDMRCSASVECKQKCLKAIGSIFGKCMNKKCVCYPR [compound 42] | 2.8
4 | CCCC[C@@H]1NC(=O)[C@@H]2CSSC[C@H](NC(=O)[C@H](CCCNC(=N)N)NC(=O)[C@H](CCCC)NC(=O)[C@H](CC(=O)O)NC(=O)[C@H](CCCC)NC(=O)[C@@H](N)C(C)C)C(=O)N[C@@H](CO)C(=O)N[C@@H](C)C(=O)N[C@@H](CO)C(=O)N[C@@H](C(C)C)C(=O)N[C@@H](CCC(=O)O)C(=O)N[C@H]3CSSC[C@H](NC(=O)[C@H](CCCCN)NC(=O)[C@H](CCCCN)NC(=O)[C@H](CC(N)=O)NC1=O)C(=O)N[C@@H](CCCCN)C(=O)N[C@H](C(=O)N[C@@H](Cc1ccc(O)cc1)C(=O)N1CCC[C@H]1C(=O)N[C@@H](CCCNC(=N)N)C(N)=O)CSSC[C@H](NC(=O)[C@H](CCCCN)NC(=O)[C@H](CCC(N)=O)NC(=O)[C@H](CCCCN)NC3=O)C(=O)N[C@@H](CC(C)C)C(=O)N[C@@H](CCCCN)C(=O)N[C@@H](C)C(=O)N[C@@H]([C@@H](C)CC)C(=O)NCC(=O)N[C@@H](CO)C(=O)N[C@@H]([C@@H](C)CC)C(=O)N[C@@H](Cc1ccccc1)C(=O)NCC(=O)N[C@@H](CCCCN)C(=O)N2 [compound 67] (H-V[Nle]D[Nle]RCSASVECKQKCLKAIGSIFGKC[Nle]NKKCKCYPR-NH2; disulfide 6-27, 12-32, 16-34) | 0.98
5 | CCCC[C@H](NC(=O)[C@@H]1CCCN1)C(=O)N[C@@H](CC(=O)O)C(=O)N[C@@H](CCCC)C(=O)N[C@@H](CCCNC(=N)N)C(=O)N[C@H]1CSSC[C@@H]2NC(=O)[C@H](CCCCN)NC(=O)CNC(=O)[C@H](Cc3ccccc3)NC(=O)[C@H]([C@@H](C)CC)NC(=O)[C@@H]3CSSC[C@@H](C(N)=O)NC(=O)[C@@H]4CCCN4C(=O)[C@H](Cc4ccc(O)cc4)NC(=O)[C@@H]4CSSC[C@H](NC(=O)[C@H](CCCCN)NC(=O)[C@H](CCC(N)=O)NC(=O)[C@H](CCCCN)NC(=O)[C@H](CSSC[C@H](NC(=O)[C@H](CCCCN)NC(=O)[C@H](CCCCN)NC(=O)[C@H](CC(N)=O)NC(=O)[C@H](CCCC)NC2=O)C(=O)N[C@@H](CCCCN)C(=O)N4)NC(=O)[C@H](CCC(=O)O)NC(=O)[C@H](C(C)C)NC(=O)[C@H](CO)NC(=O)[C@H](C)NC(=O)[C@H](CO)NC1=O)C(=O)N[C@@H](CC(C)C)C(=O)N[C@@H](CCCCN)C(=O)N[C@@H](C)C(=O)N[C@@H]([C@@H](C)CC)C(=O)NCC(=O)N3 [compound 81] (H-P[Nle]D[Nle]RCSASVECKQKCLKAIGCIFGKC[Nle]NKKCKCYPC-NH2; disulfide 6-27, 12-32, 16-34, 22-37) | 0.81
6 | H-N[Nle]D[Nle]RCSASVECEQKCLKAIGSIFGKC[Nle]NKKCKCYPR-NH2 (cysteine pairing not given here) [compound 47] | 0.99
7 | H-P[Nle]D[Nle]RCSASVECKEKCL[homo-Gln]AIGSIFGKC[Nle]NKKCKCYPR-NH2 [compound 83] | 1.4
8 | CCCC[C@@H]1NC(=O)[C@@H]2CSSC[C@H](NC(=O)[C@H](CCCNC(=N)N)NC(=O)[C@H](CCCC)NC(=O)[C@H](CC(=O)O)NC(=O)[C@H](CCCC)NC(=O)[C@@H](N)Cc3ccc(O)cc3)C(=O)N[C@@H](CO)C(=O)N[C@@H](C)C(=O)N[C@@H](CO)C(=O)N[C@@H](C(C)C)C(=O)N[C@@H](CCC(=O)O)C(=O)N[C@H]3CSSC[C@H](NC(=O)[C@H](CCCCN)NC(=O)[C@H](CCCCN)NC(=O)[C@H](CC(N)=O)NC1=O)C(=O)N[C@@H](CCCCN)C(=O)N[C@H](C(=O)N[C@@H](Cc1ccc(O)cc1)C(=O)N1CCC[C@H]1C(=O)N[C@@H](CCCNC(=N)N)C(N)=O)CSSC[C@H](NC(=O)[C@H](CCCCN)NC(=O)[C@H](CCC(N)=O)NC(=O)[C@H](CCCCN)NC3=O)C(=O)N[C@@H](CC(C)C)C(=O)N[C@@H](CCCCN)C(=O)N[C@@H](C)C(=O)N[C@@H]([C@@H](C)CC)C(=O)NCC(=O)N[C@@H](CO)C(=O)N[C@@H]([C@@H](C)CC)C(=O)N[C@@H](Cc1ccccc1)C(=O)NCC(=O)N[C@@H](CCCCN)C(=O)N2 [compound 65] (H-Y[Nle]D[Nle]RCSASVECKQKCLKAIGSIFGKC[Nle]NKKCKCYPR-NH2; disulfide 6-27, 12-32, 16-34) | 1.1
9 | H-N[Nle]D[Nle]RCSASVECQQKCLKAIGSIFGKC[Nle]NKKCKCYPR-NH2 (cysteine pairing not given here) [compound 48] | 1.1
10 | CC[C@H](C)[C@@H]1NC(=O)[C@H](C)NC(=O)[C@H](CCCCN)NC(=O)[C@H](CC(C)C)NC(=O)[C@@H]2CSSC[C@@H](C(=O)N[C@@H](Cc3ccc(O)cc3)C(=O)N3CCC[C@H]3C(=O)N[C@@H](CCCNC(=N)N)C(N)=O)NC(=O)[C@H](CCCCN)NC(=O)[C@@H]3CSSC[C@H](NC(=O)[C@H](CCC(=O)O)NC(=O)[C@H](C(C)C)NC(=O)[C@H](CO)NC(=O)[C@H](C)NC(=O)[C@H](CO)NC(=O)[C@@H](NC(=O)[C@H](CCCNC(=N)N)NC(=O)[C@H](CCSC)NC(=O)[C@H](CC(=O)O)NC(=O)[C@H](CCSC)NC(=O)[C@@H](N)CC(N)=O)CSSC[C@H](NC(=O)[C@H](CCCCN)NC(=O)CNC(=O)[C@H](Cc4ccccc4)NC(=O)[C@H]([C@@H](C)CC)NC(=O)[C@H](CO)NC(=O)CNC1=O)C(=O)N[C@@H](CCSC)C(=O)N[C@@H](CC(N)=O)C(=O)N[C@@H](CCCCN)C(=O)N[C@@H](CCCCN)C(=O)N3)C(=O)N[C@@H](CCCCN)C(=O)N[C@@H](CC(C)C)C(=O)N[C@@H](CCCCN)C(=O)N2 [compound 36] (H-NMDMRCSASVECKLKCLKAIGSIFGKCMNKKCKCYPR-NH2; disulfide 6-27, 12-32, 16-34) | 0.75
11 | H-S[Nle]D[Nle]RCSASVECKQKCLKAIGSIFGKCMNKKCKC[F(4-NO2)]PR-NH2 [compound 88] | 1.3
12 | H-S[Nle]D[Nle]RCSASVECKEKCLQAIGSIFGKC[Nle]NKKCKCYPR-NH2 (cysteine pairing not given here) [compound 82] | 0.69
13 | H-S[Nle]D[Nle]RCSASVECKQKCLKAIGSIFGKCMNKKCKC[F(4-F)]PR-NH2 [compound 87] | 0.34
14 | H-LRCSASVECKQKCLKAIGSIFGKC[Nle]NKKCKCYPR-OH (cysteine pairing not given here) [compound 103] | 2.1
15 | CCCC[C@@H]1NC(=O)[C@@H]2CSSC[C@H](NC(=O)[C@H](CCCNC(=N)N)NC(=O)[C@H](CCCC)NC(=O)[C@H](CC(=O)O)NC(=O)[C@H](CCCC)NC(=O)[C@@H](N)Cc3c[nH]cn3)C(=O)N[C@@H](CO)C(=O)N[C@@H](C)C(=O)N[C@@H](CO)C(=O)N[C@@H](C(C)C)C(=O)N[C@@H](CCC(=O)O)C(=O)N[C@H]3CSSC[C@H](NC(=O)[C@H](CCCCN)NC(=O)[C@H](CCCCN)NC(=O)[C@H](CC(N)=O)NC1=O)C(=O)N[C@@H](CCCCN)C(=O)N[C@H](C(=O)N[C@@H](Cc1ccc(O)cc1)C(=O)N1CCC[C@H]1C(=O)N[C@@H](CCCNC(=N)N)C(N)=O)CSSC[C@H](NC(=O)[C@H](CCCCN)NC(=O)[C@H](CCC(N)=O)NC(=O)[C@H](CCCCN)NC3=O)C(=O)N[C@@H](CC(C)C)C(=O)N[C@@H](CCCCN)C(=O)N[C@@H](C)C(=O)N[C@@H]([C@@H](C)CC)C(=O)NCC(=O)N[C@@H](CO)C(=O)N[C@@H]([C@@H](C)CC)C(=O)N[C@@H](Cc1ccccc1)C(=O)NCC(=O)N[C@@H](CCCCN)C(=O)N2 [compound 64] (H-H[Nle]D[Nle]RCSASVECKQKCLKAIGSIFGKC[Nle]NKKCKCYPR-NH2; disulfide 6-27, 12-32, 16-34) | 1.2
16 | H-P[Nle]D[Nle]RCSASVECAQKCLAAIGSIFGKCMNKKCKCYPR-OH (cysteine pairing not given here) [compound 96] | 0.32
17 | H-S[Nle]D[Nle]RCSASVECKQKCLVAIGSIFGKCMNKKCKCYPR-NH2 (cysteine pairing not given here) [compound 77] | 0.39
18 | NMDMRCSASVECKQKCLKAIHSIFGKCMNKKCKCYPR [compound 37] | 0.7
19 | H-S[Nle]D[Nle]RCSASVECKQKCLKAIGSIFGKCMNKKCKC[F(4-CH3)]PR-NH2 [compound 89] | 0.54
20 | H-CSASVECKQKCLKAIGCIFGKC[Nle]NKKCKCYPC-NH2 (cysteine pairing not given here) [compound 84] | 1.1
21 | LRCSASVECKQKCLAAIGSIFGKCMNKKCKCYPR [compound 105] | 0.36
22 | H-S[Nle]D[Nle]RCSASVECKQKCLAAIGCIFGKC[Nle]NKKCKCYPC-NH2 (cysteine pairing not given here) [compound 85] | 0.73
23 | H-S[Nle]D[Nle]RCSASVECKQKCLKAIGSIFGKC[Nle]NKKCKCYPR-OH (cysteine pairing not given here) [compound 80] | 0.52
24 | H-S[Nle]D[Nle]RCSASVECKQKCLKAIGSIFGKCMNKKCKCYQ-NH2 (cysteine pairing not given here) [compound 74] | 1.6
25 | H-S[Nle]D[Nle]RCSASVECK[2-Amino-5-carboxypentanoyl]KCLKAIGSIFGKCMNKKCKCYPR-NH2 [compound 73] | 0.52
26 | H-S[Nle]D[Nle]RCSASVECVQKCLKAIGSIFGKCMNKKCKCYPR-NH2 (cysteine pairing not given here) [compound 72] | 0.47
